The record followed here is patent publication US6753310B1, “Neovascular-specific peptides” (Otsuka Pharmaceutical Co., Ltd., priority 1998, dated 2004).

Where no end group is shown, it is not given here.

For assay [1], the system named is B16BL6 melanoma tumor tissue. In words: Competitive inhibition experiment using the respective phages and synthetic 8-residue or 5-residue peptides. Format: in vivo, C57BL/6 mice. To be noted: for inhibition of phage accumulation in tumor by 5-residue synthetic peptides: FIG. 2, SEQ ID NO:15 with phage No. 5, SEQ ID NO:16 with phage No. 6. How it is done: (§1) Thus, 10 days after implantation of B16BL6 melanoma (1×10^6 cells) into five-week-old C57BL/6 mice (obtained from Japan SLC), a mixed solution (0.2 ml) of 0.25 μmol of one of the above synthetic peptides and the respective phage (1×10^8 colony forming units) was administered into the tail vein of each tumor-bearing mouse under anesthesia, and the colony forming units of the phage accumulated in the tumor tissue were counted in a similar manner as mentioned above.
Using a similar method as described above under (2) and using the four short-chain peptides (SEQ ID NO:13 to 16) obtained as mentioned above under (2) in lieu of the synthetic peptides (SEQ ID NO:5 and 6), the synthetic peptides and the respective phages were administered and colony forming units for the phages accumulated in the tumor tissue were counted, and the short-chain synthetic peptides were evaluated for their inhibitory effect on phage accumulation. In a control group,synthetic peptide-free phage solutions (1×10^8 colony forming units) were administered.
In each figure, the ordinate denotes the phase accumulation percentage (%) and the abscissa denotes the phage number. In FIG. 1, the open bar is for the group (control group) given the phage alone without administration of any synthetic peptide, the shaded bar is for the group given the short-chain synthetic peptide shown in SEQ ID NO:13 and the closed bar is for the group given the short-chain synthetic peptide shown in SEQ ID NO:14.
In FIG. 2, the open bar is for the group (control group) given the phage alone without administration of any synthetic peptide, the closed bar is for the group given the short-chain peptide shown in SEQ ID NO:15 (where phage No. 5 was used) and the shaded bar is for the group given the short-chain peptide shown in SEQ ID NO:16 (where phage No. 6 was used).

The next assay concerns Meth A sarcoma. The experiment in a line: Tumor growth inhibition (tumor volume) in solid tumor-bearing mice, subcutaneous administration. It counts as in vivo, BALB/c mice. The settings on record: for tumor growth inhibiting effect (tumor volume): FIG. 3, days 1 to 11, vs distilled water; for antitumor activity (tumor volume) / order of intensities of the antitumor activity: FIG. 10. As to the method:
Solid tumor-bearing mice were prepared by subcutaneously administering 0.2 ml of Meth A sarcoma cells (5×10^6 cells/ml) into the left flank of five-week-old BALB/c male mice (Japan SLC). After 6 to 10 days from sarcoma implantation, when the diameter of the post-implantation tumor in tumor-bearing mice arrived at 4 mm was taken as day 1 and, on days 1 to 11, distilled water (D.W.) as a control or 20 mg/kg/day of each of the above dendrimers (1) to (3) was subcutaneously administered for 11 consecutive days (4 mice were used in each group).
The antitumor effect of each dendrimer peptide was evaluated 6 days after implantation and thereafter by examining the tumor growth, the body weight change and the survival time (days) as an indicator of side effect. At the same time, the minor axis and major axis of each tumor were measured and the tumor volume was calculated according to the formula shown below.
Tumor volume=0.4×a×b^2 (a: major axis, b: minor axis)
Doses of 10 mg/kg×twice/day and 20 mg/kg×twice/day of the dendrimer peptide derived from the peptide of SEQ ID NO:1 as synthesized in Example 4 (1) and a dose of 20 mg/kg×twice/day of a dendrimer peptide (SEQ ID NO:18) derived from a peptide resulting from replacement of an arbitrary sequence for the sequence shown in SEQ ID NO:1, and distilled water (DW) as a control were subcutaneously administered to mice on days 1 to 10 after tumor cell implantation according to the method of Example 4 (2), and the tumor growth inhibiting activities were examined. Four to six mice per group were subjected to the experiment. The results obtained are shown in FIG. 5 in the same manner as in FIG. 3 (ordinate: tumor volume (cm^3), abscissa: days after tumor cell implantation (days)).
The three short-chain peptides synthesized and physiological saline as a control were respectively administered subcutaneously to mice on days 1 to 10 following tumor cell implantation according to the method of Example 4 (2), and the tumor growth inhibiting activities were examined. The results obtained are shown in FIG. 6 in the same manner as in FIG. 3.
A dose of 20 mg/kg/day of each of the peptides synthesized in the above manner or distilled water (DW) as a control was subcutaneously administered to mice on days 4 to 9 after tumor cell implantation according to the method of Example 4 (2), and the tumor growth inhibiting activities were examined. Three to five mice per group were used in the experiment. The results are shown in FIG. 7 in the same manner as in FIG. 3.
A dose of 20 mg/kg/day of each of the peptides synthesized in the above manner or physiological saline as a control was subcutaneously administered to mice on days 1 to 10 after tumor cell implantation according to the method of Example 4 (2), and the tumor growth inhibiting activities were examined. Four or five mice per group were used in the experiment. The results are shown in FIG. 8 in the same manner as in FIG. 3.
A dose of 20 mg/kg/day of each of the peptides synthesized in the above manner or distilled water as a control was subcutaneously administered to mice on days 1 to 10 after tumor cell implantation according to the method of Example 4 (2), and the tumor growth inhibiting activities were examined. Five or six mice per group were used in the experiment. The results are shown in FIG. 9 in the same manner as in FIG. 3.
A dose of 20 mg/kg/day of each of the peptides synthesized in the above manner or distilled water or physiological saline as a control was subcutaneously administered to mice on days 1 to 10 after tumor cell implantation according to the method of Example 4 (2), and the tumor growth inhibiting activities were examined. Five or six mice per group were used in the experiment. The results are shown in FIG. 10 (results with the peptides of SEQ ID NO:28-32) and FIG. 11 (results with the peptides of SEQ ID NO:33-35) in the same manner as in FIG. 3. […]

Assay [2] deals with B16BL6 melanoma tumor tissue. The experiment in a line: Competitive inhibition experiment using the respective phages and synthetic 15-residue peptides. To be noted: for % Dose/100 mg tissue: tail vein; for inhibitory activity against accumulation of phages Nos. 5 and 6: synthetic peptides with common sequence WRP. Format: in vivo, C57BL/6 mice. As to the method:
The synthetic peptides having the amino acid sequences shown in SEQ ID NO:1, 5 and 6 were respectively administered simultaneously with the phages No. 1, No. 5 and No. 6 in a similar manner as in Example 1 (5). Each peptide was synthesized as in Example 2.
as §1
In a control group, synthetic peptide-free phage solutions (1×10^8 colony forming units) were administered.
Phages accumulated in neovascular tissues in tumor tissues were counted through colony formation, and each synthetic peptide was evaluated for its inhibitory effect on phage accumulation using, as a reference value, the ratio of accumulation of the peptide-expressing phage in tumor without simultaneous administration of the synthetic peptide.

Setting [3] is: accumulation of phage No. 1 (1×10^8 cfu) co-administered with 0.25 μmol synthetic peptide.
Where [4] appears, read: accumulation of phage No. 5 (1×10^8 cfu) co-administered with 0.25 μmol synthetic peptide.
[5] abbreviates: accumulation of phage No. 6 (1×10^8 cfu) co-administered with 0.25 μmol synthetic peptide.
[6] abbreviates: inhibition of phage No. 1 accumulation in tumor by 0.25 μmol synthetic peptide.
[7] abbreviates: inhibition of phage No. 5 accumulation in tumor by 0.25 μmol synthetic peptide.
Where [8] appears, read: 20 mg/kg/day subcutaneously, days 1 to 10.
The mark [9] stands for this setting: FIG. 6, subcutaneously, days 1 to 10, vs physiological saline.
[10] abbreviates: inhibition of phage No. 6 accumulation in tumor by 0.25 μmol synthetic peptide.

Regarding RWRPA (RWRPA-NH2) [SEQ ID NO: 15], the “inhibition of phage accumulation in tumor by 5-residue synthetic peptides” value in assay [1] is reported as “inhibit likewise the accumulation in tumor of the phages”.
Regarding “SEQ ID NO: 14: 8-Residue peptide comprising positions 8 to 15 of SEQ ID NO: 6 (IHWRPWAR; phage library)”, in assay [1] (FIG. 1), the “cross reactivity between phages” value was “showed cross reactivity” and the “inhibitory activity compared with the 15-residue synthetic peptides” value was “higher in inhibitory activity than the 15-resiude synthetic peptides”. Besides, the “inhibition of phage accumulation by 8-residue synthetic peptides” value in assay [1] (FIG. 1, phages expressing the corresponding 15-residue peptides (Nos. 5 and 6)) is “inhibited the accumulation of the phages”.
In the case of “(ASSSYPLIHWRPWAR)8-LYs4-Lys2-Lys-βAla (also: octameric lysine dendrimer (Lys4-Lys2-Lys-βAla core), 8 copies)”, the “tumor growth inhibiting effect (tumor volume)” value (“tumor growth inhibiting effect” below) in the assay with Meth A sarcoma (20 mg/kg/day subcutaneously) is listed as “marked tumor growth inhibiting effects”.
Consider “PRPGAPLAGSWPGTS (phage library) [SEQ ID NO: 1]”, for which the “% Dose/100 mg tissue” value is given as 5.95 × 10^−3 % Dose/100 mg tissue in assay [2] (setting [3]), 1.35 × 10^−2 % Dose/100 mg tissue in assay [2] (setting [4]) and 1.14 × 10^−2 % Dose/100 mg tissue in assay [2] (setting [5]). In addition, the figures for the Accumulation inhibition % in assay [2] (setting [6]) and in assay [2] (setting [7]) were 55% and 9%, respectively.
Regarding “(PRPGAPLAGSWPGTS)8-Lys4-Lys2-Lys-βAla (also: octameric lysine dendrimer (Lys4-Lys2-Lys-βAla core), 8 copies)”, the “tumor growth inhibiting effect” value in the assay with Meth A sarcoma (20 mg/kg/day subcutaneously) is “marked tumor growth inhibiting effects”. Further, the “tumor growth inhibiting activity (tumor volume)” value (“tumor growth inhibiting activity” below) in the assay with Meth A sarcoma (FIG. 5, 10 and 20 mg/kg×twice/day subcutaneously, days 1 to 10) was “dose-dependent tumor growth inhibiting activity”.
As for “SEQ ID NO: 31: 4-Residue peptide comprising positions 10 to 13 of SEQ ID NO: 6 (WRPW; phage library)”, in the assay with Meth A sarcoma (setting [8]), the “antitumor activity (tumor volume)” value is reported as “has antitumor activity” and the “order of intensities of the antitumor activity” value (from here on “order”) is given as “peptide of SEQ ID NO:28=peptide of SEQ ID NO:29>peptide of SEQ ID NO:30=peptide of SEQ ID NO:31>peptide of SEQ ID NO:32”.
As for “(DRWRPALPVVLFPLH)8-Lys4-Lys2-Lys-βAla (also: octameric lysine dendrimer (Lys4-Lys2-Lys-βAla core), 8 copies)”, the “tumor growth inhibiting effect” value in the assay with Meth A sarcoma (20 mg/kg/day subcutaneously) is reported as “marked tumor growth inhibiting effects”.
Consider HWRPW (HWRPW-NH2) [SEQ ID NO: 16], for which, in assay [1], the “inhibition of phage accumulation in tumor by 5-residue synthetic peptides” value is listed as “inhibit likewise the accumulation in tumor of the phages”.
Regarding “SEQ ID NO: 19: 12-Residue peptide containing positions 1 to 8 of SEQ ID NO: 1 (ADGAPRPGAPLA; phage library)”, the “tumor growth inhibiting activity” value in the assay on Meth A sarcoma (setting [9]) is reported as “tendency toward inhibition of tumor growth”.
Regarding “Trp-Arg-Pro (WRP; phage library) [SEQ ID NO: 32]”, in the assay on Meth A sarcoma (setting [8]), the “antitumor activity (tumor volume)” value is on record as “has antitumor activity” and the “order” value was “peptide of SEQ ID NO:28=peptide of SEQ ID NO:29>peptide of SEQ ID NO:30=peptide of SEQ ID NO:31>peptide of SEQ ID NO:32”.
In the case of “SEQ ID NO: 28: 4-Residue peptide comprising positions 2 to 5 of SEQ ID NO: 5 (RWRP; phage library)”, in the assay on Meth A sarcoma (setting [8]), the “antitumor activity (tumor volume)” value was “has antitumor activity” and the “order” value is on record as “peptide of SEQ ID NO:28=peptide of SEQ ID NO:29>peptide of SEQ ID NO:30=peptide of SEQ ID NO:31>peptide of SEQ ID NO:32”.
With APRPG (APRPG-NH2) [SEQ ID NO: 17], in the assay with Meth A sarcoma (setting [9]), the “tumor growth inhibiting activity” value is given as “tendency toward inhibition of tumor growth”.
In the case of “ASSSYPLIHWRPWAR (phage library) [SEQ ID NO: 6]”, the “% Dose/100 mg tissue” value in assay [2] (setting [3]) is 5.92 × 10^−3 % Dose/100 mg tissue; in assay [2] (setting [4]), 3.61 × 10^−3 % Dose/100 mg tissue; in assay [2] (setting [5]) it was 6.43 × 10^−3 % Dose/100 mg tissue. Besides, the results for the Accumulation inhibition % in assay [2] (setting [6]), in assay [2] (setting [7]) and in assay [2] (setting [10]) were 55%, 76% and 44%, respectively. Besides, the “inhibitory activity against accumulation of phages Nos. 5 and 6” value in assay [2] was “crosswise inhibitory activity”.
Consider “DRWRPALPVVLFPLH (phage library) [SEQ ID NO: 5]”, for which the “% Dose/100 mg tissue” value is listed as 6.36 × 10^−3 % Dose/100 mg tissue in assay [2] (setting [3]), 5.08 × 10^−3 % Dose/100 mg tissue in assay [2] (setting [4]) and 6.60 × 10^−3 % Dose/100 mg tissue in assay [2] (setting [5]). Further, the Accumulation inhibition % in assay [2] (setting [6]) came out at 52%; in assay [2] (setting [7]), 66%; in assay [2] (setting [10]), 43%. For the same substance, the “inhibitory activity against accumulation of phages Nos. 5 and 6” value in assay [2] was “crosswise inhibitory activity”. Moreover, the “tumor growth inhibiting activity” value in the assay with Meth A sarcoma (FIG. 7, 20 mg/kg/day subcutaneously, days 4 to 9) is listed as “have tumor growth inhibiting activity”.
Consider “SEQ ID NO: 30: 4-Residue peptide comprising positions 3 to 12 of SEQ ID NO: 5 (WRPA; phage library)”, for which, in the assay on Meth A sarcoma (setting [8]), the “antitumor activity (tumor volume)” value is reported as “has antitumor activity” and the “order” value is recorded as “peptide of SEQ ID NO:28=peptide of SEQ ID NO:29>peptide of SEQ ID NO:30=peptide of SEQ ID NO:31>peptide of SEQ ID NO:32”.
Take “SEQ ID NO: 29: 4-Residue peptide comprising positions 9 to 12 of SEQ ID NO: 6 (HWRP; phage library)”: in the assay with Meth A sarcoma (setting [8]), the “antitumor activity (tumor volume)” value is on record as “has antitumor activity” and the “order” value was “peptide of SEQ ID NO:28=peptide of SEQ ID NO:29>peptide of SEQ ID NO:30=peptide of SEQ ID NO:31>peptide of SEQ ID NO:32”.
